Here are results for 22 molecules from patent US9598424B2 (Takeda Pharmaceutical Company Limited, priority 2014, dated 2017).

The structures appear in SMILES notation. A value given as a limit tells only on which side of the number the result lay.

Broadly, the melting point is the temperature, or range, at which the solid turns liquid.

Series [1] has as its target T1, Full length human TBK1 (Homo sapiens, UniProt Q9UHD2).
T1 construct: Full length human TBK1 with an N-terminal His-tag; His-tag (N); made in house; host or cells: Sf9 insect cells (baculovirus, pFastBac1)
T1 sequence (Q9UHD2 1-729): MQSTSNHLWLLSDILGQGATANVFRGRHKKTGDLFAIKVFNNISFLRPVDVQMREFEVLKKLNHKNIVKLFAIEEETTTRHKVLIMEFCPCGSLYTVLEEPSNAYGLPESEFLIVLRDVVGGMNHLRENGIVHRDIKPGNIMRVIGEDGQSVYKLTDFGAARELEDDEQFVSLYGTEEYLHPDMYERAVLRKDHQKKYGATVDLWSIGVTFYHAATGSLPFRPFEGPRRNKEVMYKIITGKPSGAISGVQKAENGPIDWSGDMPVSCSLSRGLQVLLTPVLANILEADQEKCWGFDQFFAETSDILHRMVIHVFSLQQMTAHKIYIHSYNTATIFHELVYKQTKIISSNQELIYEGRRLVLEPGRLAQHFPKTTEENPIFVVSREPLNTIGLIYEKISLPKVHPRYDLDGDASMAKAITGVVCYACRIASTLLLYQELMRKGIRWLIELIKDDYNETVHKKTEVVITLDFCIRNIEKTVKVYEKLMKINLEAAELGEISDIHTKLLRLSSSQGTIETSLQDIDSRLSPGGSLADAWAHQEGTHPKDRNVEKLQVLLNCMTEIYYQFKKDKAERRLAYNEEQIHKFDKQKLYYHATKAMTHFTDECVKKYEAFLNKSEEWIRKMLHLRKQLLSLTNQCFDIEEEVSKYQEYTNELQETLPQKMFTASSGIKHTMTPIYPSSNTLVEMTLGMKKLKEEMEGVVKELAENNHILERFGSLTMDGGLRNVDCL
The series can be described thus: Inhibition of TBK1 Enzyme (Caliper microfluidic assay). Format: biochemical. The following applies: 25 μM ATP, 60 min at RT; -log(IC50), IC50 molar; read-out: TBK1 Inhibition (pIC50) (converted). The procedure, abridged: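 Enzyme: His-tagged full-length TBK1 expressed in Sf9. Reaction 60 min at RT in 20 mM Hepes pH 7.4, 10 mM MgCl2, 1 mM EDTA, 0.01% Brij-L23, 1 mM DTT, with 5FAM-peptide (added at 1 μM) and TBK1/ATP mix (added at 3 nM/25 μM), then EDTA-quenched. Conversion measured by microfluidic separation; 11-point 2.5-fold series fit to pIC50.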

Series [2] has as its target T2, TBK1 (Homo sapiens, UniProt Q9UHD2).
T2 construct: host or cells: RA1-ISRE beta-lactamase reporter cells
T2 sequence (Q9UHD2 1-729): T1 sequence (Q9UHD2 1-729)
Put plainly: Inhibition of TBK1 in Cells (TLR3 driven ISRE β-lactamase reporter assay). The following applies: poly IC-LMW stimulation 16 hrs; -log(EC50), EC50 molar; read-out: Inhibition of TBK1 in cells pEC50 (EC) (converted). Type of series: cell-based. In a few lines: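 RA1-ISRE β-lactamase reporter cells (50,000/well) treated with 11-point 2.5-fold compound dilutions and stimulated with 0.15 mg/ml poly IC-LMW for 16 hrs. Reporter read by CCF4-AM FRET; EC50 from non-linear fit of percent inhibition, reported as pEC50 (molar).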
A general note: Reporter assays use an easily measured gene product as a stand-in for the process of interest.

`Cc1c(-c2ccc3nc(NC(=O)C4CC4)cn3c2)n[nH]c1C(=O)NCC(F)(F)F` [Example 25, 3-(2-(cyclopropanecarboxamido)imidazo[1,2-a]pyridin-6-yl)-4-methyl-N-(2,2,2-trifluoroethyl)-1H-pyrazole-5-carboxamide] had a melting point of over 275 °C. Further, the IC50 in series [1] was 79.4 nM. In series [2], the EC50 is 3310 nM.
Consider `COCC(=O)Nc1cn2cc(-c3csc(C(=O)NCC(F)(F)F)c3)ccc2n1` [Example 14, 4-(2-(2-methoxyacetamido)imidazo[1,2-a]pyridin-6-yl)-N-(2,2,2-trifluoroethyl)thiophene-2-carboxamide], for which the melting point was in the range of 230 to 232 °C. The IC50 in series [1] was 39.8 nM. Moreover, the EC50 in series [2] was 1740 nM.
In turn, `COCCC(=O)Nc1cn2cc(-c3csc(C(=O)NCC(F)(F)F)c3)ccc2n1` [Example 15, 4-(2-(3-methoxypropanamido)imidazo[1,2-a]pyridin-6-yl)-N-(2,2,2-trifluoroethyl)thiophene-2-carboxamide] yielded a melting point of 231 to 233 °C. Also, the IC50 in series [1] is 25.1 nM. Also, the EC50 in series [2] was 933 nM.
With `O=C(NCC(F)(F)F)c1nc(-c2ccc3nc(NC(=O)C4CC4)cn3c2)cs1` [Example 4, 4-(2-(cyclopropanecarboxamido)imidazo[1,2-a]pyridin-6-yl)-N-(2,2,2-trifluoroethyl)thiazole-2-carboxamide], the melting point lay in the range of 279 to 282 °C. Moreover, the IC50 in series [1] was 5.01 nM. In addition, the EC50 in series [2] was 617 nM.
`CC(=O)Nc1cn2cc(-c3csc(C(=O)NCC(F)(F)F)c3)ccc2n1` [Example 13, 4-(2-acetamidoimidazo[1,2-a]pyridin-6-yl)-N-(2,2,2-trifluoroethyl)thiophene-2-carboxamide] registered a melting point of 180 to 182 °C. In series [1], the IC50 was 25.1 nM. Further, in series [2], the EC50 is 813 nM.
For `COC1CCN(C(=O)c2nc(-c3ccc4nc(NC(=O)C5CC5)cn4c3)cs2)C1` (stereo not shown) [Example 97, N-(6-(2-(3-methoxypyrrolidine-1-carbonyl)thiazol-4-yl)imidazo[1,2-a]pyridin-2-yl)cyclopropanecarboxamide], the IC50 in series [1] is 126 nM. In series [2], the EC50 was 1550 nM.
For the molecule `O=C(Nc1cn2cc(-c3csc(C(=O)N4CCC[C@@H]4C(F)(F)F)n3)ccc2n1)C1CC1` [Example 93, (R)-N-(6-(2-(2-(trifluoromethyl)pyrrolidine-1-carbonyl)thiazol-4-yl)imidazo[1,2-a]pyridin-2-yl)cyclopropanecarboxamide], the IC50 in series [1] is 7.94 nM. Further, the EC50 in series [2] was 110 nM.
Take `O=C(NC1CCCC1=O)c1nc(-c2ccc3nc(NC(=O)C4CC4)cn3c2)cs1` (stereo not shown) [Example 91, 4-(2-(cyclopropanecarboxamido)imidazo[1,2-a]pyridin-6-yl)-N-(2-oxocyclopentyl)thiazole-2-carboxamide]: in series [1], the IC50 is 200 nM. The EC50 in series [2] was 5130 nM.
The corresponding values for `Cc1sc(C(=O)NCC(F)(F)F)cc1-c1cn2cc(NC(=O)C3CC3)nc2cn1` [Example 30, 4-(2-(cyclopropanecarboxamido)imidazo[1,2-a]pyrazin-6-yl)-5-methyl-N-(2,2,2-trifluoroethyl)thiophene-2-carboxamide] are 25.1 nM and 6460 nM.
Molecule `Cn1nc(-c2ccc3nc(NC(=O)C4CC4)cn3c2)cc1C(=O)NCC(F)F` [Example 2, 3-(2-(cyclopropanecarboxamido)imidazo[1,2-a]pyridin-6-yl)-N-(2,2-difluoroethyl)-1-methyl-1H-pyrazole-5-carboxamide] showed a melting point of 284 to 290 °C. The IC50 in series [1] was 316 nM. Also, the EC50 in series [2] was 8320 nM.
Regarding `O=C(NC1CCCOC1)c1cc(-c2ccc3nc(NC(=O)C4CC4)cn3c2)cs1` (stereo not shown) [Example 67, 4-(2-(cyclopropanecarboxamido)imidazo[1,2-a]pyridin-6-yl)-N-(tetrahydro-2H-pyran-3-yl)thiophene-2-carboxamide], the IC50 in series [1] is 63.1 nM. Moreover, the EC50 in series [2] was 1170 nM.
On to `Cn1nc(-c2ccc3nc(NC(=O)C4CC4)cn3c2)cc1C(=O)NCC(F)(F)F` [Example 1, 3-(2-(cyclopropanecarboxamido)imidazo[1,2-a]pyridin-6-yl)-1-methyl-N-(2,2,2-trifluoroethyl)-1H-pyrazole-5-carboxamide], for which the melting point is 251 to 255 °C. Further, the IC50 in series [1] was 251 nM. Further, the EC50 in series [2] was 8320 nM.
The corresponding values for `CC(F)(F)CNC(=O)c1cc(-c2ccc3nc(NC(=O)C4CC4)cn3c2)cs1` [Example 3, 4-(2-(cyclopropanecarboxamido)imidazo[1,2-a]pyridin-6-yl)-N-(2,2-difluoropropyl)thiophene-2-carboxamide] are 117 to 119 °C, 5.01 nM and 166 nM.
Regarding `C[C@@H](NC(=O)c1cn(-c2ccc3nc(NC(=O)C4CC4)cn3c2)cn1)C(F)(F)F` [Example 43], in series [1], the IC50 was 50.1 nM. The EC50 in series [2] was 2340 nM.
As for `O=C(Nc1cn2cc(-c3csc(C(=O)N4CCC[C@H]4C(F)(F)F)c3)ccc2n1)C1CC1` [Example 61, (S)-N-(6-(5-(2-(trifluoromethyl)pyrrolidine-1-carbonyl)thiophen-3-yl)imidazo[1,2-a]pyridin-2-yl)cyclopropanecarboxamide], the IC50 in series [1] was 39.8 nM. In series [2], the EC50 was 2630 nM.
For `N#CCC(=O)Nc1cn2cc(-c3csc(C(=O)NCC(F)(F)F)c3)ccc2n1` [Example 17, 4-(2-(2-cyanoacetamido)imidazo[1,2-a]pyridin-6-yl)-N-(2,2,2-trifluoroethyl)thiophene-2-carboxamide], in that order: 79.4 nM and 2950 nM.
Turning to `O=C(Nc1cn2cc(-c3csc(C(=O)N4CCCC4C(F)(F)F)c3)ccc2n1)C1CC1` (stereo not shown) [Example 60, N-(6-(5-(2-(trifluoromethyl)pyrrolidine-1-carbonyl)thiophen-3-yl)imidazo[1,2-a]pyridin-2-yl)cyclopropanecarboxamide], in series [1], the IC50 was 15.8 nM. Moreover, in series [2], the EC50 is 234 nM.
The corresponding values for `O=C(Nc1cn2cc(-c3csc(C(=O)N4CCCC4CO)n3)ccc2n1)C1CC1` (stereo not shown) [Example 114, N-(6-(2-(2-(hydroxymethyl)pyrrolidine-1-carbonyl)thiazol-4-yl)imidazo[1,2-a]pyridin-2-yl)cyclopropanecarboxamide] are 158 nM and 1620 nM.
In the case of `O=C(NCC(F)(F)F)c1ccn(-c2ccc3nc(NC(=O)C4CC4)cn3c2)n1` [Example 34, 1-(2-(cyclopropanecarboxamido)imidazo[1,2-a]pyridin-6-yl)-N-(2,2,2-trifluoroethyl)-1H-pyrazole-3-carboxamide], the IC50 in series [1] was 20 nM. Also, in series [2], the EC50 was 513 nM.
For `CC(C)(NC(=O)c1cc(-c2ccc3nc(NC(=O)C4CC4)cn3c2)cs1)C(F)(F)F` [Example 56, 4-(2-(cyclopropanecarboxamido)imidazo[1,2-a]pyridin-6-yl)-N-(1,1,1-trifluoro-2-methylpropan-2-yl)thiophene-2-carboxamide], in that order: 25.1 nM and 631 nM.
The corresponding values for `O=C(NCC(F)F)c1cc(-c2ccc3nc(NC(=O)C4CC4)cn3c2)n[nH]1` [Example 27, 5-(2-(cyclopropanecarboxamido)imidazo[1,2-a]pyridin-6-yl)-N-(2,2-difluoroethyl)-1H-pyrazole-3-carboxamide] are 31.6 nM and 3720 nM.
With `O=C(N[C@H]1CCOC1)c1cc(-c2ccc3nc(NC(=O)C4CC4)cn3c2)cs1` [Example 72, (S)-4-(2-(cyclopropanecarboxamido)imidazo[1,2-a]pyridin-6-yl)-N-(tetrahydrofuran-3-yl)thiophene-2-carboxamide], the IC50 in series [1] was 12.6 nM. The EC50 in series [2] is 1200 nM.
